This is an account of results in US20260335229A1, “NOVEL COMPOSITIONS” (priority 2025, published 2026).

In one data set the test system is Gram-positive bacteria. To be noted: background statement; cited from earlier work.
The conditions of data set [1]: 21 °C and standard pressure; cited from earlier work.
A short description of data set [2]: Solubility observed on preparing formulations. It counts as physicochemical. To be noted: pH 5.5 versus pH 5.0.

Counter-ions that a name gives are not always drawn.

On to `CN[C@H]1C(=O)N[C@@H]2Cc3ccc(cc3)Oc3cc4cc(c3O[C@@H]3O[C@H](C(=O)O)[C@@H](O)[C@H](O)[C@H]3NC(=O)CCCCCCCCC(C)C)Oc3ccc(cc3Cl)[C@@H](O)[C@@H]3NC(=O)[C@H](NC(=O)[C@@H]4NC(=O)[C@@H](NC2=O)c2cc(cc(O)c2Cl)Oc2cc1ccc2O)c1ccc(O)c(c1)-c1c(O[C@H]2O[C@H](CO)[C@@H](O)[C@H](O)[C@@H]2O)cc(O)cc1[C@@H](C(=O)NCCCN(C)C)NC3=O` [Dalbavancin], for which the Antibiotic activity result with Gram-positive bacteria is given as “strong antibiotic activity”.

For `CC(O)C(=O)O` (stereo not drawn) [lactic acid], the pKa (commonly the negative logarithm of the acid dissociation constant) in data set [1] is reported as 3.7.

`CN[C@H]1C(=O)N[C@@H]2Cc3ccc(cc3)Oc3cc4cc(c3O[C@@H]3O[C@H](C(=O)O)[C@@H](O)[C@H](O)[C@H]3NC(=O)CCCCCCCCC(C)C)Oc3ccc(cc3Cl)[C@@H](O)[C@@H]3NC(=O)[C@H](NC(=O)[C@@H]4NC(=O)[C@@H](NC2=O)c2cc(cc(O)c2Cl)Oc2cc1ccc2O)c1ccc(O)c(c1)-c1c(O[C@H]2O[C@H](CO)[C@@H](O)[C@H](O)[C@@H]2O)cc(O)cc1[C@@H](C(=O)NCCCN(C)C)NC3=O` [dalbavancin hydrochloride]: in data set [2], the Solubility result is recorded as “reduced solubility”.
